Laboratory results as given in BigSolDB 2.1.

Sc1nc2ccccc2[nH]1
solubility (mole fraction)
Conditions | 283.15 K | 288.15 K | 293.15 K | 298.15 K | 303.15 K | 308.15 K | 313.15 K | 318.15 K | 323.15 K
in 2-butoxyethanol | 0.0459 | 0.0463 | 0.0469 | 0.0475 | 0.0484 | 0.0491 | 0.0498 | 0.0507 | 0.0515
in 2-ethoxyethanol | 0.0577 | 0.0583 | 0.059 | 0.0599 | 0.0607 | 0.0615 | 0.0623 | 0.0634 | 0.0646
in 2-methoxyethanol | 0.0682 | 0.0691 | 0.0703 | 0.0717 | 0.0729 | 0.0742 | 0.0758 | 0.0775 | 0.0793
in 2-propoxyethanol | 0.0497 | 0.0502 | 0.0506 | 0.0511 | 0.0519 | 0.0526 | 0.0535 | 0.0545 | 0.0555
in MIBK | 0.00859 | 0.00884 | 0.00913 | 0.00945 | 0.00983 | 0.0102 | 0.0106 | 0.011 | 0.0114
in ethyl formate | 0.00169 | 0.0018 | 0.00197 | 0.00211 | 0.00228 | 0.0025 | 0.00273 | 0.003 | 0.00323
in ethylene glycol | 0.0137 | 0.0147 | 0.0162 | 0.0175 | 0.0193 | 0.0206 | 0.022 | 0.0238 | 0.0254
in isobutanol | 0.00371 | 0.0046 | 0.00556 | 0.00638 | 0.00724 | 0.00813 | 0.0092 | 0.0103 | 0.0114
in isopropyl acetate | 0.00245 | 0.00255 | 0.00272 | 0.00283 | 0.00303 | 0.00318 | 0.00337 | 0.00364 | 0.00397
in n-butyl acetate | 0.00529 | 0.00538 | 0.00551 | 0.00564 | 0.00577 | 0.00597 | 0.00614 | 0.00637 | 0.00662
in sec-butanol | 0.00591 | 0.00729 | 0.00851 | 0.00972 | 0.011 | 0.0126 | 0.014 | 0.0159 | 0.0177
